What was measured:
Nalm-6 cells = assay: Half-maximal apoptosis induction (AC50) in Nalm-6 cells; assay type: cell-based; conditions: Homo sapiens; Nalm-6, 72 h, flow cytometry; read-out: Biological effect: half-maximal apoptosis induction (AC50)
Description: Apoptosis Induction in Nalm-6 Cells after Treatment with WIL-071 or Different Steroid Derivatives.
(§1) The cells were incubated in 6-well plates with 1.0·10^5 cells/mL in two milliliters of medium with the respective steroid derivative in different concentrations. The included solvent control (DMSO) served as a control, which was subtracted from all the other measured values, in order not to take into account the spontaneous apoptosis of the cells that takes place independently of the concentration of active ingredient. After 72 h, a modified cell cycle analysis was performed, in order to quantify the proportion of apoptotic cells by flow cytometry. For each concentration of the steroid, the respective mean values f standard deviations, n=3 (*: p<0.05 vs. DMSO, t test) were determined. Using the curve of the dose-effect relationship (steroid concentration−apoptosis induction) formed from these measured values, the steroid concentration at which apoptosis was triggered in 50% of the tested leukemia cells was read.

[1] = tested on: prednisolone-resistant leukemia cells; assay: Overcoming of prednisolone resistance; assay type: cell-based; conditions: 72 h
Description: as §1
Prednisolone resistance is said to be overcome if the induction of apoptosis in prednisolone-resistant leukemia cells is as high as it is in normal leukemia cells.

[2] = tested on: pancreatic carcinoma cells (DAN-G); assay: Apoptosis in pancreatic carcinoma cells; assay type: cell-based; conditions: comparable experiments
Description: In contrast to conventional glucocorticoids, the steroid WIL 071 can induce apoptosis also in pancreatic carcinoma cells.
The DNA fragmentation was measured by flow cytometry, see FIG. 11. The experiments were performed in triplicate. The error bars show the standard deviations of the measured values of three independent experiments.
The standard treatment for pancreatic carcinoma includes 5-fluorouracil.

[3] = Tolerability (dose escalation, MTD) in an animal model; assay type: in vivo, NOG-F (Taconic) mice
Description: An incremental increase of dose of the three substances Wil-071, Wil-232 and Wil-369 was performed in 8-week-old female NOG-F (Taconic) mice. Different mice were administered one of up to seven different doses of the test substances. The start was on day 1 with the lowest dose of 10 mg/kg. […] All in all, if possible, the doses 10, 20, 40, 80, 100, 150 and 200 mg/kg are tested. Subsequently, the maximum tolerable dose (MTD) was administered to three more animals, and these were subsequently observed for one week, in order to be able to observe any developing symptoms. For this purpose, the animals were observed and weighed on a daily basis. The body weight is considered an indicator of the general condition of the animals.
(§2) For the MTD experiment, Wil-071 was dissolved in 100% DMSO, and then diluted 1:50 with a 20% (w/v) 2-hydroxypropyl-beta-cyclodextrin (HPβCD) solution. Thus, 200 μL of injection solution (per mouse) of a 40 mg/kg dose could be achieved. For 80, 100 and 150 mg/kg, the DMSO proportion was increased to up to 4% (v/v) in the final injection solution. In addition, ultrasound had to be employed, and the sample had to be heated at 60° C. for up to 45 min. 200 mg/kg was reached only as a milky suspension. […] Therefore, Wil-071 can be considered non-toxic up to 150 mg/kg. The final MTD could not be determined because of the insufficient solubility.
For 100 mg/kg of Wil-232, the end concentration of DMSO in the injection solution was 2%. In order to dissolve Wil-232, the sample also had to be treated with ultrasound, and heated at 60° C. The dose of 150 mg/kg was achieved only with 4% DMSO, and 200 mg/kg was achieved only as a suspension. […] Otherwise, there were no signs of toxicity, so that the substance can be considered tolerable up to 150 mg/kg. In this case too, a final MTD cannot be determined because of insufficient solubility.
Using a DMSO stock and 20% HPβCD solution, a maximum of only 5 mg/ml was dissolved. A further increase could not be achieved even with more DMSO or HPβCD. Thus, above the dose of 40 mg/kg, a higher injection volume was injected in order to reach the corresponding dose. […] For the tolerability under the current solubility conditions, a value of […] is to be applied. This dose was injected into the 8 animals for pharmacokinetics. In this case too, a final MTD cannot be determined because of insufficient solubility.

[4] = assay type: physicochemical
Description: All three substances are sparingly soluble in tested injection solutions, so that the maximal dose could not exceed 200 mg/kg.
as §2
For 100 mg/kg of Wil-232, the end concentration of DMSO in the injection solution was 2%. In order to dissolve Wil-232, the sample also had to be treated with ultrasound, and heated at 60° C. The dose of 150 mg/kg was achieved only with 4% DMSO, and 200 mg/kg was achieved only as a suspension. […] In this case too, a final MTD cannot be determined because of insufficient solubility.
Using a DMSO stock and 20% HPβCD solution, a maximum of only 5 mg/ml was dissolved. […] In this case too, a final MTD cannot be determined because of insufficient solubility.

[5] = Distribution in serum, brain and liver after injection; assay type: in vivo, NOG-F (Taconic) mice
Description: Following the determination of the MTD, eight animals were again injected the MTD of the substances, and after 1, 2, 8 and 24 hours, 2 animals each were killed. For pharmacokinetics, the liver, brain and serum of the animals were shock-frosted in liquid nitrogen, and analyzed (see Example 15).
The samples obtained in Example 4 were examined for the contents of the substances. Since WIL-369 can be hydrolyzed to WIL-071, both WIL-369 and WIL-071 were determined in the samples. As far as these substances were detectable in the samples, this is represented in the Figures.

For CC(=O)O[C@@H]1CC[C@@]23CO[C@@H](C(=O)[C@@]2(O)C1)[C@H]1[C@@H]2CC[C@H]([C@H](C)CCCC(C)C)[C@@]2(C)CC[C@@H]13 [TAS-S405, 3α-acetoxy-5α-hydroxy-7β,19-epoxy-cholestan-6-one], the AC50 (Nalm-6 cells) was 90 µM and the EC50 [1] was ~20 µM.
CC(C)CCC[C@@H](C)[C@H]1CC[C@H]2[C@@H]3[C@H]4OC[C@@]5(CCC(=O)C=C5C4=O)[C@H]3CC[C@]12C [WIL-270, 7β,19-epoxy-cholest-4-en-3,6-dione] showed an AC50 (Nalm-6 cells) of 20 µM and an EC50 [1] of 18 µM.
CC(C)CCC[C@@H](C)[C@H]1CC[C@H]2[C@@H]3[C@H]4OC[C@@]5(CC[C@H](OC(=O)CO)C[C@]5(O)C4=O)[C@H]3CC[C@]12C [WIL364, (7β,19-epoxy-5α-hydroxy-6-on-cholestan-3β-yl) ester of glycolic acid] gave an AC50 (Nalm-6 cells) of ~18 µM and an EC50 [1] of ~17.5 µM.
In the case of C=C(CC(=O)O[C@H]1CC[C@@]23CO[C@@H](C(=O)[C@@]2(O)C1)[C@H]1[C@@H]2CC[C@H]([C@H](C)CCCC(C)C)[C@@]2(C)CC[C@@H]13)C(=O)OC [WIL367, 4-(7β,19-epoxy-5α-hydroxy-6-on-cholestan-3β-yl)-1-methyl ester of itaconic acid], the AC50 (Nalm-6 cells) is reported as ~8 µM and the EC50 [1] is reported as ~12.5 µM.
With CC(C)CCC[C@@H](C)[C@H]1CC[C@H]2[C@@H]3[C@H]4OC[C@@]5(CC[C@H](O)C[C@]5(OCc5ccccc5)C4=O)[C@H]3CC[C@]12C [WIL-242b, 5α-benzyloxy-3β-hydroxy-7β,19-epoxy-cholestan-6-one] the AC50 (Nalm-6 cells) was 37 µM and the EC50 [1] was 40 µM.
In the case of O=C1[O][Pt]2([NH][C@@H]3CCCC[C@H]3[NH]2)[O]C1=O [Oxaliplatin], the apoptosis ([2]; at 50 μM) is reported as 14%.
With C=C1[C@@H]2OC[C@@]3(CC[C@H](O)C[C@]13O)[C@H]1CC[C@]3(C)[C@@H]([C@H](C)CCCC(C)C)CC[C@H]3[C@H]21 [TAS-S399, 7β,19-epoxy-6-methylen-cholest-3β,5α-diol] the AC50 (Nalm-6 cells) was 50 µM and the EC50 [1] was ~75 µM.
In the case of COC(=O)/C=C/C(=O)O[C@H]1CC[C@@]23CO[C@@H](C(=O)[C@@]2(O)C1)[C@H]1[C@@H]2CC[C@H]([C@H](C)CCCC(C)C)[C@@]2(C)CC[C@@H]13 [WIL369, (7β,19-epoxy-5α-hydroxy-6-on-cholestan-3β-yl)methyl ester of fumaric acid], the AC50 (Nalm-6 cells) is reported as ~3 µM, the EC50 [1] is reported as 5 µM and the mortality ([3]; 100 mg/kg dose group, one animal) is reported as “found dead on day 3 after the injection”. For the same molecule, the behaviour after injection ([3]; 100 mg/kg in twice as large injection volumes) was “the animals lay down on their side for some moments, but recovered quickly”, the “tolerability under the current solubility conditions” value ([3]; mice, injection) was 50 mg/kg and the maximum dissolved concentration [4] was ≤ 5 mg/mL. For the same molecule, the solubility [4] was “lowest solubility” and the “distribution in the liver” value [5] was “a quick degradation takes place in the liver; it is the only place where WIL-369 is found”.
Work on CC[C@H](CC[C@@H](C)[C@H]1CC[C@H]2[C@@H]3[C@H]4OC[C@@]5(CC[C@H](O)C[C@]5(O)C4=O)[C@H]3CC[C@]12C)C(C)C [WIL-DK-09, 3β,5α-dihydroxy-7β,19-epoxy-stigmastan-6-one] yielded an AC50 (Nalm-6 cells) of ~15 µM and an EC50 [1] of ~38 µM.
In the case of CC(C)CCC[C@@H](C)[C@H]1CC[C@H]2[C@@H]3[C@H]4OC[C@@]5(CCC(=O)C[C@]5(O)C4=O)[C@H]3CC[C@]12C [WIL-241, 5α-hydroxy-7β,19-epoxy-cholestane-3,6-dione], the AC50 (Nalm-6 cells) is reported as 41 µM.
For CC(C)CCC[C@@H](C)[C@H]1CC[C@H]2[C@@H]3[C@H]4OC[C@@]5(CC[C@H](OC(=O)CNC(=O)OC(C)(C)C)C[C@]5(O)C4=O)[C@H]3CC[C@]12C [WIL360, N-Boc-glycin (7β,19-epoxy-5α-hydroxy-6-on-cholestan-3β-yl) ester], the AC50 (Nalm-6 cells) was > 20 µM and the EC50 [1] was 20 µM.
With CC(C)CCC[C@@H](C)[C@H]1CC[C@H]2[C@@H]3[C@H]4OC[C@@]5(CC[C@H](OS(C)(=O)=O)C[C@]5(O)C4=O)[C@H]3CC[C@]12C [TAS-S389, (7β,19-epoxy-5α-hydroxy-6-on-cholestan-3β-yl) ester of methanesulfonic acid] the AC50 (Nalm-6 cells) was ~20 µM and the EC50 [1] was ~30 µM.
CC[C@H](CC[C@@H](C)[C@H]1CC[C@H]2[C@@H]3[C@H]4OC[C@@]5(CC[C@H](OC(C)=O)C[C@]5(O)C4=O)[C@H]3CC[C@]12C)C(C)C [WIL-DK-08, 3β-acetoxy-5α-hydroxy-7β,19-epoxy-stigmastan-6-one] showed an AC50 (Nalm-6 cells) of 50 µM and an EC50 [1] of ~40 µM.
In the case of CC(=O)O[C@H]1CC[C@@]23CO[C@@H](C(=O)[C@@]2(O)C1)[C@H]1[C@@H]2CC[C@H]([C@H](C)CCCC(C)C)[C@@]2(C)CC[C@@H]13 [WIL-232, 3β-acetoxy-5α-hydroxy-7β,19-epoxy-cholestan-6-one], the AC50 (Nalm-6 cells) is reported as 25 µM, the EC50 [1] is reported as 17.5 µM and the “outcome of injection of the 200 mg/kg suspension” value ([3]; 200 mg/kg as suspension, signs of pulmonary embolism in section) is reported as “immediate death of the animal”. For the same molecule, the “dose up to which non-toxic / tolerable” value ([3]; injection into caudal vein, mice, final MTD not determinable because of solubility) was “up to 150 mg/kg”.
Work on CC(C)CCC[C@@H](C)[C@H]1CC[C@H]2[C@@H]3[C@H]4OC[C@@]5(CC[C@H](O)C[C@]5(O)C4(C)O)[C@H]3CC[C@]12C (stereo partly drawn) [TAS-S406, 7β,19-epoxy-6α-methylcholestan-3β,5α,6β-triol] yielded an AC50 (Nalm-6 cells) of 13 µM and an EC50 [1] of ~17 µM.
With O=c1[nH]cc(F)c(=O)[nH]1 [5-fluorouracil] the apoptosis ([2]; at 30 μM) was 24.9% and the apoptosis ([2]; at 50 μM) was 21.2%.
In the case of COC(=O)O[C@H]1CC[C@@]23CO[C@@H](C(=O)[C@@]2(O)C1)[C@H]1[C@@H]2CC[C@H]([C@H](C)CCCC(C)C)[C@@]2(C)CC[C@@H]13 [WIL357, 7β,19-epoxy-5α-hydroxy-6-on-cholestan-3β-yl-methyl carbonate], the AC50 (Nalm-6 cells) is reported as > 50 µM and the EC50 [1] is reported as > 50 µM.
Molecule CC(C)CCC[C@@H](C)[C@H]1CC[C@H]2[C@@H]3[C@H]4OC[C@@]5(CCCC[C@]5(O)C4=O)[C@H]3CC[C@]12C [TAS-S398, 7β,19-epoxy-5α-hydroxy-cholestan-6-one] has an AC50 (Nalm-6 cells) of ~80 µM and an EC50 [1] of ~67 µM.
Molecule CC(C)CCC[C@@H](C)[C@H]1CC[C@H]2[C@@H]3[C@H]4OC[C@@]5(CC=CC[C@]5(O)C4=O)[C@H]3CC[C@]12C [TAS-S392, 7β,19-epoxy-5α-hydroxy-cholest-2-en-6-one] has an AC50 (Nalm-6 cells) of ~46 µM and an EC50 [1] of ~39 µM.
Molecule CC(C)CCC[C@@H](C)[C@H]1CC[C@H]2[C@@H]3[C@H]4OC[C@@]5(CC[C@@H](O)C[C@]5(O)C4=O)[C@H]3CC[C@]12C [TAS-S403, 3α,5α-dihydroxy-7β,19-epoxy-cholestan-6-one] has an AC50 (Nalm-6 cells) of 100 µM and an EC50 [1] of 20 µM.

From patent US20240398836A1, “EPOXY STEROIDS” (priority 2021, published 2024)
